Literature values, collected in PubChem BioAssay AID1259409 (Chemical Carcinogenesis Research Information System (CCRIS), 2018).

System: rodent chemically induced tumor inhibition, incidence and multiplicity
Assay: CCRIS tumor inhibitor studies

For `O=c1c(O)c(-c2ccc(O)c(O)c2)oc2cc(O)cc(O)c12`, the “tumour outcome (control, treated, inhibition, significance)” value (Carcinogen: 4-NITROQUINOLINE-1-OXIDE, 56-57-5, Dose [Inhibitor]: 0, 500 PPM IN DIET FOR 10 WK BEGINNING 1 WK PRIOR TO CARCINOGEN DOSE (STUDY DURATION: 32 WK), Route [Inhibitor]: ORAL, Species: RAT, Strain/Sex: F344/MALE, Target Tissue: Type of Lesion: TONGUE: CARCINOMA, Dose [Carcinogen]: 20 PPM IN DRINKING WATER FOR 8 WK, Promoter: NONE USED) is given as 9/15 (60%), 2/16 (13%), 78%, p<0.05, the “tumour outcome (control, treated, inhibition, significance)” value (Carcinogen: 4-NITROQUINOLINE-1-OXIDE, 56-57-5, Dose [Inhibitor]: 0, 500 PPM IN DIET FOR 10 WK BEGINNING 1 WK PRIOR TO CARCINOGEN DOSE (STUDY DURATION: 32 WK), Route [Inhibitor]: ORAL, Species: RAT, Strain/Sex: F344/MALE, Target Tissue: Type of Lesion: TONGUE: PAPILLOMA, Dose [Carcinogen]: 20 PPM IN DRINKING WATER FOR 8 WK, Promoter: NONE USED) is given as 4/15 (27%), 1/16 (6%), 78%, not significant and the “tumour outcome (control, treated, inhibition, significance)” value (Carcinogen: 4-NITROQUINOLINE-1-OXIDE, 56-57-5, Dose [Inhibitor]: 0, 500 PPM IN DIET FOR 22 WK BEGINNING 1 WK POST CARCINOGEN TREATMENT (STUDY DURATION: 32 WK), Route [Inhibitor]: ORAL, Species: RAT, Strain/Sex: F344/MALE, Target Tissue: Type of Lesion: TONGUE: CARCINOMA, Dose [Carcinogen]: 20 PPM IN DRINKING WATER FOR 8 WK, Promoter: NONE USED) is given as 9/15 (60%), 1/15 (7%), 88%, p<0.05. For the same compound, the “tumour outcome (control, treated, inhibition, significance)” value (Carcinogen: 4-NITROQUINOLINE-1-OXIDE, 56-57-5, Dose [Inhibitor]: 0, 500 PPM IN DIET FOR 22 WK BEGINNING 1 WK POST CARCINOGEN TREATMENT (STUDY DURATION: 32 WK), Route [Inhibitor]: ORAL, Species: RAT, Strain/Sex: F344/MALE, Target Tissue: Type of Lesion: TONGUE: PAPILLOMA, Dose [Carcinogen]: 20 PPM IN DRINKING WATER FOR 8 WK, Promoter: NONE USED) was 4/15 (27%), 1/15 (7%), 74%, not significant, the “tumour outcome (control, treated, inhibition, significance)” value (Carcinogen: 7,12-DIMETHYLBENZ[A]ANTHRACENE, 57-97-6, Dose [Inhibitor]: 0, 0.2 ML OF A 1% SOLUTION 1/D FOR 2 WK APPLIED 5 MIN POST EACH CARCINOGEN DOSE THEN 1/D FOR 4 WK DURING PROMOTION STAGE, Route [Inhibitor]: DERMAL, Species: MOUSE, Strain/Sex: SWISS/MALE, Target Tissue: Type of Lesion: SKIN: PAPILLOMA, Dose [Carcinogen]: 0.2 ML OF A 0.24% SOLUTION IN DMSO 1/D FOR 2 WK, Promoter: CROTON OIL, 8001-28-3) was 23/23 (100%), 8/24 (33%), 67%, not calculated and the “tumour outcome (control, treated, inhibition, significance)” value (Carcinogen: 7,12-DIMETHYLBENZ[A]ANTHRACENE, 57-97-6, Dose [Inhibitor]: 0, 0.2 ML OF A 1% SOLUTION 1/D FOR 2 WK APPLIED 5 MIN PRIOR TO EACH CARCINOGEN DOSE (STUDY DURATION: 20 WK), Route [Inhibitor]: DERMAL, Species: MOUSE, Strain/Sex: SWISS/MALE, Target Tissue: Type of Lesion: SKIN: PAPILLOMA, Dose [Carcinogen]: 0.2 ML OF A 0.24% SOLUTION IN DMSO 1/D FOR 2 WK, Promoter: CROTON OIL, 8001-28-3) was 23/23 (100%), 20/24 (83%), 17%, not calculated. For the same compound, the “tumour outcome (control, treated, inhibition, significance)” value (Carcinogen: 7,12-DIMETHYLBENZ[A]ANTHRACENE, 57-97-6, Dose [Inhibitor]: 0, 3% IN DIET FOR 28 WK (STUDY DURATION: 28 WK), Route [Inhibitor]: ORAL, Species: RAT, Strain/Sex: SPRAGUE-DAWLEY/FEMALE, Target Tissue: Type of Lesion: MAMMARY GLAND: CARCINOMA, Dose [Carcinogen]: 10 MG/100 G BW ONCE) was 16/21 (76%), 10/22 (46%), 39% p<0.05, the “tumour outcome (control, treated, inhibition, significance)” value (Carcinogen: 7,12-DIMETHYLBENZ[A]ANTHRACENE, 57-97-6, Dose [Inhibitor]: 1.0% IN POWDERED DIET BEGINNING 1 WK POST CARCINOGEN DOSE FOR 51 WK (STUDY DURATION: 52 WK), Route [Inhibitor]: ORAL, Species: RAT, Strain/Sex: SPRAGUE-DAWLEY/FEMALE, Target Tissue: Type of Lesion: EAR DUCT: BENIGN TUMOR, Dose [Carcinogen]: 2.5 MG/100 G BW IN 0.5 ML SESAME OIL ONCE, Promoter: NONE USED) was 7/19 (37%), 4/18 (22%), 40%, not calculated and the “tumour outcome (control, treated, inhibition, significance)” value (Carcinogen: 7,12-DIMETHYLBENZ[A]ANTHRACENE, 57-97-6, Dose [Inhibitor]: 1.0% IN POWDERED DIET BEGINNING 1 WK POST CARCINOGEN DOSE FOR 51 WK (STUDY DURATION: 52 WK), Route [Inhibitor]: ORAL, Species: RAT, Strain/Sex: SPRAGUE-DAWLEY/FEMALE, Target Tissue: Type of Lesion: MAMMARY GLAND: CARCINOMA, Dose [Carcinogen]: 2.5 MG/100 G BW IN 0.5 ML SESAME OIL ONCE, Promoter: NONE USED) was 6/19 (32%), 4/18 (22%), 30%, not calculated. The “tumour outcome (control, treated, inhibition, significance)” value (Carcinogen: 7,12-DIMETHYLBENZ[A]ANTHRACENE, 57-97-6, Dose [Inhibitor]: 1.0% IN POWDERED DIET BEGINNING 1 WK POST CARCINOGEN DOSE FOR 51 WK (STUDY DURATION: 52 WK), Route [Inhibitor]: ORAL, Species: RAT, Strain/Sex: SPRAGUE-DAWLEY/FEMALE, Target Tissue: Type of Lesion: MAMMARY GLAND: FIBROADENOMA, Dose [Carcinogen]: 2.5 MG/100 G BW IN 0.5 ML SESAME OIL ONCE, Promoter: NONE USED) was 15/19 (79%), 8/18 (44%), 44%, not calculated and the “tumour outcome (control, treated, inhibition, significance)” value (Carcinogen: 7,12-DIMETHYLBENZ[A]ANTHRACENE, 57-97-6, Dose [Inhibitor]: 30 UMOL 2 D/WK FOR 18 WK APPLIED 30-40 MIN PRIOR TO AND CONCURRENT WITH EACH PROMOTER TREATMENT BEGINNING 10 D POST CARC, Route [Inhibitor]: DERMAL, Species: MOUSE, Strain/Sex: CD-1/FEMALE, Target Tissue: Type of Lesion: SKIN: PAPILLOMA, Dose [Carcinogen]: 200 NMOL ONCE, Promoter: 12-O-TETRADECANOYLPHORBOL-13-ACETATE, 16561-29-8) was 95%, 62%, 35%, not calculated.
